Source: PMC7590976, “Detection of Active Granzyme A in NK92 Cells with Fluorescent Activity-Based Probe” (Journal of Medicinal Chemistry, 2020)
Several values for one entry are separate records, joined by “and”; a condition that tells them apart may be missing. Equal entries are not always repeated. Non-standard residues stand in square brackets, D forms with d. *: point of attachment. Oic = O=C(O)[C@@H]1C[C@@H]2CCCC[C@@H]2N1; ACC = NC(=O)Cc1cc(=O)oc2cc(N*)ccc12

Experiments:
[1] = target: T1, GrB (Homo sapiens, UniProt P10144); test: GrA substrate selectivity testing on GrB; format: biochemical; settings: substrate 200 μM (Fig 3A) or 67 μM, 18 nM GrB
T1 construct: made in house; host or cells: Pichia pastoris
T1 sequence (P10144 21-247): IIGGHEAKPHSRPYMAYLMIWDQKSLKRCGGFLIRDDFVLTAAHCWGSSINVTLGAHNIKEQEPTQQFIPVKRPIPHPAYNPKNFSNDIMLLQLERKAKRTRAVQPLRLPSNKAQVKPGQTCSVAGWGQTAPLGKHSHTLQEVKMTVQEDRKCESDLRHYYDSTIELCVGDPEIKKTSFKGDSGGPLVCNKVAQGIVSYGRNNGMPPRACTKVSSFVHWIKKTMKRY
Text: Since GrA and GrK are the most structurally similar Grs, they may recognize and hydrolyze the same natural and synthetic substrates. Therefore, we tested whether our new GrA substrates are also recognized by GrK or GrB (Figure 3A). For this experiment, we screened substrates SK8 to SK28 and a GrKref substrate (Ac-Tyr-Arg-Phe-Lys-ACC) or GrBref substrate (Ac-Ile-Glu-Pro-Asp-ACC) at the same concentration using a plate reader, and we monitored the increase in fluorescence over time. The linear portions of the diagram were analyzed, and as we expected, the majority of the substrates were well recognized by GrK, even better than their recognition by GrA. […] Based on that, we concluded that Tic-Gly-Oic-Arg is a leading sequence for a specific potent inhibitor and ABP for GrA.
Figure 3 (A) GrA substrate selectivity testing on GrK and GrB. Substrates SK8–SK28 and the reference GrK and GrB substrates were placed in a 96-well plate at a concentration of 200 μM and treated with GrK or GrB. […] Data present the average of 2 replicates as adjusted RFU/s.
Figure S2. Selectivity of SK15 substrate toward selected serine proteases (GrA, GrB, GrM, GrK,
PR3, and hNE). The reference substrates were as follows: Ac-Ile-Gly-Pro-Arg-ACC for GrA, Ac -Tyr-
Arg-Phe-Lys-ACC for GrK, Ac-Ile-Glu-Pro-Asp-ACC for GrB, Ac-Lys-Val-Pro-Leu-ACC for GrM,
Ac-Glu(O-Bzl)-Lys(Ac)-Hyp(Bzl)-Nva-ACC for PR3 and Ac-Arg(NO)2-Glu(Bzl)-Oic-Abu-ACC for hNE.
Substrates were placed in a 96-well plate at a concentration of 67 µM and treated with optimal
and emission wavelengths. Data present the average of 2 replicates as adjusted RFU/s.
Figure S3. Detection of active GrA in NK92 cells.
(also on this page, place not known: S K15 hNE) . Ac-Tyr- -Arg(NO)2-Glu(Bzl)-Oic-Abu-ACC ( 89 G rA cell s. reference reference SK15 reference SK15 reference SK15 reference SK15 reference SK15 0 50 100 substrate turnover, %RFU/s PR3GrMGrBGrK hNEGrA SK15 selectivity) […]

[2] = target: T2, GrA (Homo sapiens, UniProt P12544); test: Steady-state Michaelis–Menten kinetics of fluorogenic ACC substrates with GrA; format: biochemical; settings: GrA 93 nM, 37 °C, ACC fluorescence 355/460 nm
T2 construct: made in house; host or cells: Pichia pastoris
T2 sequence (P12544 29-262): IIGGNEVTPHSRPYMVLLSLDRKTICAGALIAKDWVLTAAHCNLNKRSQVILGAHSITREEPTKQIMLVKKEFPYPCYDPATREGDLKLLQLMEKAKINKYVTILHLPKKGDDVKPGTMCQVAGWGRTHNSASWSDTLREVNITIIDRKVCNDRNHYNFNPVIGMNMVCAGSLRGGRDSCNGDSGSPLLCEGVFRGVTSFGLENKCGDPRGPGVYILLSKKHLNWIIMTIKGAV
Text: All chemical and biological reagents were purchased from commercial suppliers and used without further purification. The following reagents for solid phase peptide synthesis, Rink Amide RA resin (particle size 200–300 mesh, loading 0.74 mmol/g), 2-chlorotrityl chloride resin, Fmoc-protected amino acids, biotin, 1-[bis(dimethylamino)methylene]-1H-1,2,3-triazolo[4,5-b] pyridinium 3-oxid hexafluorophosphate (HATU), piperidine, diisopropylcarbodiimide (DICI), and trifluoroacetic acid (TFA), were purchased from Iris Biotech GmbH (Marktredwitz, Germany); anhydrous N-hydroxybenzotriazole (HOBt, purity >98%) was purchased from Creosauls; 2,4,6-collidine (2,4,6-trimethylpyridine), HPLC pure acetonitrile, and triisopropylsilane (TIPS) were purchased from Sigma-Aldrich (Poznan, Poland); and N,N-diisopropylethylamie (DIPEA) was purchased from VWR International (Gdansk, Poland). Solvents such as N,N-dimethylformamide (DMF), dichloromethane (DCM), methanol (MeOH), diethyl ether (Et2O), and acetic acid (AcOH) were purchased from Avantor (Gliwice, Poland). Cy5 was purchased from Lumiprobe GmbH (Hannover, Germany). Human neutrophil elastase was purchased from BioCentrum (Kraków, Poland) and proteinase 3 from Athens Research Technology (Athens, USA). Anti-GrA antibody (rabbit, monoclonal, ab209205) was obtained from Abcam (Cambridge, Great Britain). All cell lines were purchased from DSMZ (Braunschweig, Germany) or ATCC (Manassas, USA). All kinetic assays were performed using a Spectra Max Gemini XPS spectrofluorometer (Molecular Devices) on 96-well Corning plates. The parameters of the process were as follows: 37 °C; excitation/emission wavelength, 355/460 nm; cutoff, 455 nm; varying concentrations of substrates and enzyme. All measurements were performed in duplicate, and the data represent the average of these repetitions

[3] = tested on: PR3; test: Residual activity assay, PR3; format: biochemical; settings: 3.4 nM PR3 preincubated with 10 μM compound 30 min 37 °C; substrate Ac-Glu(O-Bzl)-Lys(Ac)-Hyp(Bzl)-Nva-ACC
Method: (§1) We wondered whether the selectivity of our SK15-based molecules for GrA would be maintained by substrate structure modifications, such as replacing ACC with a diphenyl phosphonate warhead and changing the N-terminus from acetyl to the cyanine derivative Cy5.
(§2) As a control, enzymes without inhibitor and probe were tested.

[4] = tested on: hNE; test: Residual activity assay, hNE; format: biochemical, human; settings: 3.3 nM hNE preincubated with 10 μM compound 30 min 37 °C; substrate Ac-Arg(NO)2-Glu(Bzl)-Oic-Abu-ACC
Method: as §1, §2

[5] = target: T3, GrK (Homo sapiens, UniProt P49863); test: Residual activity assay, GrK; format: biochemical; settings: 488 nM GrK preincubated with 10 μM compound 30 min 37 °C; 200 μM GrKref
T3 construct: made in house; host or cells: Pichia pastoris
T3 sequence (P49863 27-264): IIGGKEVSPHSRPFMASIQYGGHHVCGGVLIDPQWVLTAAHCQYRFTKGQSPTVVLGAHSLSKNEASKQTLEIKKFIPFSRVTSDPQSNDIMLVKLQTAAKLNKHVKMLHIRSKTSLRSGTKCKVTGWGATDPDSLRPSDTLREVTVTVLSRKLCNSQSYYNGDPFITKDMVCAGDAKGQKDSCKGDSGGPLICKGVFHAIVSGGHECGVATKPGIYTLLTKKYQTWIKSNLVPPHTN
Method: as §1, §2

[6] = tested on: GrM; test: Residual activity assay, GrM; format: biochemical, human; settings: 74 nM GrM preincubated with 10 μM compound 30 min 37 °C; substrate Ac-Lys-Val-Pro-Leu-ACC
Method: as §1, §2

[7] = target: T2, GrA; test: In-gel detection of recombinant GrA with SK15.5 (SDS-PAGE); format: binding; settings: GrA 250 nM, 37 °C
Method: (§3) Next, we tested the utility of our fluorescent probe for the in-gel detection of active GrA in test samples. […] We then ran a simple SDS-PAGE assay to detect labeled GrA (Figure 4A). […] In our hands, the probe bound to the enzyme, as indicated by the fluorescent 35 kDa species, after the minimal incubation time (5 min). […] The optimal concentration was 500 nM (strong signal) (Figure 4B).
(§4) (A) Incubation time of SK15.5 with enzyme optimization. […] (D) GrA in-gel detection in NK92 cell lysates. […] The results are representative of at least 2 replicates.
(§5) In contrast to the closely related GrB, GrH, GrM, and GrK, GrA is a homodimer formed by stable disulfide-linked subunits.[26] Since the subunits are oriented in opposite directions, the surrounding area may form an exosite.[26]
(§6) In the incubation time optimization assay, the enzyme and probe concentrations were constant (250 nM), and the incubation time ranged from 0 to 120 min. […] Enzyme was incubated with probe in a volume of 80 μL, followed by the reduction with 40 μL of 3 × SDS/DTT for 5 min at 95 °C. Samples were centrifuged (3 min, 4500g), and 40 μL of each sample was run on 4–12% Bis-Tris 10-well gels (Invitrogen). The first well was loaded with 2 μL of the protein marker PageRuler Plus Prestained Protein Ladder (Thermo Scientific). Electrophoresis was conducted at 165 V for 37 min at room temperature. […] Total sample volume was 80 μL, to which 40 μL of 3× SDS/DTT was added and boiled for 5 min at 95 °C. Samples were centrifuged (3 min, 4500g), and 40 μL of each sample was run on 4–12% Bis-Tris 10-well gels (Invitrogen). Each form of the enzyme without SK15.5 and probe itself were run as controls. The first well was loaded with 2 μL of protein marker PageRuler Plus Prestained Protein Ladder (Thermo Scientific). Electrophoresis and membrane transfer were conducted in the same manner as above.

[8] = target: T4, GrA (Homo sapiens, UniProt P12544); test: as above; format: binding; settings: GrA forms 250 nM, probe 500 nM, 1 h, Western blot
T4 construct: made in house; host or cells: Pichia pastoris
T4 sequence (P12544 27-262): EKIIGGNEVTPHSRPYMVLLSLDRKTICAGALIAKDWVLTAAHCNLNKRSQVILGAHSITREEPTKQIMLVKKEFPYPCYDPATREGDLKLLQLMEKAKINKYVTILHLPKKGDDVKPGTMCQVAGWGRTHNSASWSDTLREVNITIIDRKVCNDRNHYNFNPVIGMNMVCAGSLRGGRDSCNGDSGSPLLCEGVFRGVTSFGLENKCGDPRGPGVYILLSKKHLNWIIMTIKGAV
Method: as §3, §4, §5, §6

[9] = tested on: GrA; test: Residual activity assay, GrA preinhibited with SK15I or SK15.5; format: biochemical, human; settings: substrate SK15; preincubation 30 min, 37 °C
Method: as §1, §2

[10] = tested on: GrA in NK92 cell lysates; settings: lysates 1 × 10^7 cells/mL, probe 250 nM to 2 μM, 1 h, 37 °C
[11] = target: T1, GrB; test: Residual activity assay, GrB; format: biochemical; settings: 18 nM GrB preincubated with 10 μM compound 30 min 37 °C; 200 μM GrBref
Method: as §1, §2

[12] = target: T2, GrA; test: Second-order inhibition rate constant kobs/I toward GrA, pseudo-first-order conditions; format: biochemical; settings: pseudo-first-order; substrate SK15 10 μM; inhibitor 714–333 nM; GrA 350 nM added; pH 7.5, 37 °C; average of at least three experiments with SD
Method: We calculated the apparent second-order rate constants for inhibition (kobs(app)/I) of GrA-mediated SK15I under pseudo first-order conditions by serially diluting the new inhibitor in the range of 714–333 nM with a constant optimal substrate (SK15) concentration of 10 μM (Figure 3B).
The second-order inhibition rate constant (kobs/I expressed in M^–1 s^–1) toward GrA was measured under pseudo-first-order kinetic conditions. Ten microliters of substrate (SK15) was mixed with varying inhibitor or probe concentrations and incubated at 37 °C for 15 min. […] Experiments are presented as the average of at least three experiments with standard deviation.

[13] = tested on: human GrA; test: P1 library screening (individual substrates Ac-Ile-Ser-Pro-P1-ACC) with GrA; settings: relative to best P1 residue (100%); substrates at the same concentration; fluorescence 355/460 nm

Substance: Ac-IG[Oic]R-{ACC} (SMILES CC[C@H](C)[C@H](NC(C)=O)C(=O)NCC(=O)N1[C@H](C(=O)N[C@@H](CCCNC(=N)N)C(=O)Nc2ccc3c(CC(N)=O)cc(=O)oc3c2)C[C@@H]2CCCC[C@@H]21) [SK17]
- hydrolysis by GrB (in words) [1]: significantly hydrolyzed

Substance: Ac-Ile-Gly-Pro-Arg-ACC (Ac-IGPR-{ACC}; SMILES CC[C@H](C)[C@H](NC(C)=O)C(=O)NCC(=O)N1CCC[C@H]1C(=O)N[C@@H](CCCNC(=N)N)C(=O)Nc1ccc2c(CC(N)=O)cc(=O)oc2c1) [SK7, reference compound]
- kcat ([2]; assay buffer pH 7.5): 0.035 ± 0.00076 s⁻¹
- kcat/KM ([2]; assay buffer pH 7.5): 78 ± 6.60 s^–1 M^–1 and 78 ± 6.6 M^–1 s^–1
- Km ([2]; substrate 1000–7.81 μM, 50 mM Tris, 100 mM NaCl, 5 mM CaCl2, 0.01% Tween-20, pH 7.5, Michaelis–Menten nonlinear regression, duplicate): 450 ± 1.3 µM

Substance: Ac-Met(O)-Gly-Hyp(Bzl)-3-Abz-ACC [SK13]
- hydrolysis by GrB (in words) [1]: significantly hydrolyzed

Substance: Cy5-Ahx-Tic-Gly-Oic-Arg^P(OPh)2 [SK15.5]
- inhibition of PR3 [3]: almost no inhibition effect
- inhibition of hNE [4]: almost no inhibition effect
- inhibition of GrK [5]: 3%
- inhibition of GrM [6]: almost no inhibition effect
- optimal probe concentration for GrA labeling (strong signal) ([7]; 30 min, SDS-PAGE): 500 nM
- detection limit, minimum probe concentration needed for GrA labeling ([7]; 30 min, SDS-PAGE, estimated): approximately 50 nM
- incubation time after which labeling no longer increases (maximal labeling) ([7]; probe 250 nM): 30 min
- minimal incubation time after which probe-bound GrA is detected ([7]; probe 250 nM): 5 min
- probe labeling of GrA zymogen (in words) [8]: no signal was detected in the zymogen
- residual GrA activity after preinhibition (in words) [9]: completely blocked
- selectivity of labeling in NK92 cell lysates (in words) [10]: did not observe any additional bands
- inhibition of GrB [11]: almost no inhibition effect
- kobs/I [12]: 3521 ± 296 M^–1 s^–1

Substance: L-Arg
- relative GrA activity on P1 library substrate Ac-Ile-Ser-Pro-P1-ACC [13]: 92%

Substance: L-Asp
- relative GrA activity on P1 library substrate Ac-Ile-Ser-Pro-P1-ACC [13]: 17.8%

Substance: L-Lys
- relative GrA activity on P1 library substrate Ac-Ile-Ser-Pro-P1-ACC [13]: 21%
